Data set [1] in a line: Cleavage of thioester linkage in [14C]palmitoyl-CoA, release of free [14C]palmitate (TLC, autoradiography). Type of data set: biochemical. The conditions noted are these: varying concentrations; various incubation times; [14C]palmitate production. As for the experimental part:
It has been reported that thioester linkages in s-acylated proteins are labile, and that compounds having nucleophilic properties are able to disrupt such linkages. Thus, the ability of derivatives of hydroxylamine to disrupt thioester linkages in s-acylated proteins was tested. Twelve HA-derivatives, described in Table 1, were screened for their ability to cleave thioester linkage in [^14C]palmitoyl˜CoA (a model thioester substrate of PPT1), mediating the release of free [^14C]palmitic acid, a process depicted in FIG. 2. […] [^14C]-palmitoyl-CoA was incubated for 1 hour with each of the HA derivatives and the reaction mixture was resolved by thin layer chromatography (TLC) followed by autoradiography. The free [^14C]-palmitate bands were visible and quantitated by densitometric analysis of the bands.

A further data set has as its system INCL fibroblasts. In words: MTT viability of cultured INCL fibroblasts. The class given is cell-based, human. The settings on record: 48 hours of treatment; viability as percent of untreated control (FIG. 4A-C). As for the experimental part:
Ten out of the twelve HA-derivative compounds listed in Table 1 were tested to determine whether they adversely affected the viability of cultured cells from INCL patients. […] Briefly, following treatment with HA-derivatives INCL cells were incubated with Thiazolyl Blue Tetrazolium […] for 4 hours at 37° C. Formazan crystals thus formed were dissolved in acidified isopropanol and absorption was measured at 570 nm. Viability was expressed as percent of untreated control.
Briefly, normal fibroblasts (GM 00498) were obtained from the Coriell Institute of Medical Research, USA. PPT1-deficient INCL fibroblasts were isolated from skin biopsy samples of INCL patients admitted to an ongoing clinical protocol (#01-CH-0086) approved by the Institutional Review Board (IRB) of the National Institute of Child Health and Human Development (NICHD) at the National Institute of Health (NIH). […] The fibroblasts were cultured in the presence or absence of varying concentrations of each of the HA-derivatives for 48 hours, after which the viability of the cells was determined using the MTT-Cell Viability Assay by T. Mossman, (Rapid colorimetric assay for cellular growth and survival. J. Immunol. Method. 65 (1983) 55-63).

The subject of data set [2] is PPT1-KO mice. The experiment in a line: TUNEL assay of cortical tissue sections of PPT1-KO mice. Type of data set: in vivo, mouse. The settings on record: cortical tissue vs untreated PPT1-KO mice (FIG. 16). As for the experimental part:
It has been reported that postmortem brain tissues from INCL patients as well as those from PPT1-KO mice manifest high levels of oxidative stress, which induces neuronal apoptosis contributing to neuropathology. […] Accordingly, a terminal deoxynucleotidyl transferase dUTP nick end labeling (TUNEL) assay was performed using cortical tissue sections from wild-type, untreated PPT1-KO and NtBuHA-treated PPT1-KO mice to determine the level of apoptosis. […] Since elevated levels of apoptosis in the brain of PPT1-KO mice and INCL patients mediate progressive decline in number of cortical neurons, the inventors also sought to further confirm whether decreased apoptosis in NtBuHA-treated PPT1-KO mice prevented neuronal loss. Accordingly, an immunohistochemical analyses of cortical tissue sections from wild-type, untreated-PPT1-KO, and NtBuHA-treated PPT1-KO mice was performed using antibodies against a neuronal marker, NeuN. […] Quantitative analysis of the NeuN-positive cells in brain tissues from wild-type, untreated and NtBuHA-treated PPT1-KO mice (FIG. 18D) confirmed the visual assessment.

The test system of data set [3] is PPT1-KO mice. The experiment in a line: Western blot of caspase-9 and cleaved PARP-1 in cortical tissue homogenates of PPT1-KO mice. The class given is in vivo, mouse. The settings on record: cortical tissue homogenates (FIG. 17). On the procedure:
Western blot analysis was performed as using standard methodology. Briefly 30 μg of protein was resolved in 4-12% Bis tris gel (Invitrogen) and electro-transferred in PVDF membrane. The membranes were blocked with 5% non fat dried milk for 1 hour at room temperature and were then probed overnight with primary antibody at 4 C. After washing the blots were incubated with horseradish peroxidase conjugated secondary antibody (Santacruz Biotechnology) for 1 hour at room temperature and developed using enhanced chemiluminescences detection reagents (Pierce). Primary antibodies used in this study were caspase-3, caspase-9 (cell signaling) SOD2, catalase, β-Actin (US Biologicals).
(§1) It has been reported that postmortem brain tissues from INCL patients as well as those from PPT1-KO mice manifest high levels of oxidative stress, which induces neuronal apoptosis contributing to neuropathology. […] Accordingly, a terminal deoxynucleotidyl transferase dUTP nick end labeling (TUNEL) assay was performed using cortical tissue sections from wild-type, untreated PPT1-KO and NtBuHA-treated PPT1-KO mice to determine the level of apoptosis. […] Quantitative analysis of the NeuN-positive cells in brain tissues from wild-type, untreated and NtBuHA-treated PPT1-KO mice (FIG. 18D) confirmed the visual assessment.
A general note: A western blot detects proteins with antibodies after separation by electrophoresis.

Data set [4] relates to PPT1-KO mice. In words: NeuN immunohistochemistry of cortical tissue sections of PPT1-KO mice. Type of data set: in vivo, mouse. The conditions noted are these: brain sections vs untreated PPT1-KO mice (FIG. 18). On the procedure: The NtBuHA treated and untreated mouse brain tissues were fixed in 3.7% paraformaldehyde, embedded in paraffin and processed for histological analyses. Briefly, after being treated with xylene and then successively with different concentrations of ethanol in phosphate buffered saline (PBS) (100% to 0%), tissue sections were blocked with 5% BSA in PBS. Sections were then probed overnight with anti-synaptophysin (Abcam) and anti-GFAP followed by incubation with alexa fluor 594 conjugated anti-rabbit and anti-mouse secondary antibodies (Invitrogen). Sections were mounted with DAPI containing mounting medium and imaged using Zeiss LSM 510 Inverted Meta confocal microscope (Carl Zeiss).
as §1

In data set [5] the test system is PPT1-KO mice. In words: Blood methemoglobin level in PPT1-KO mice. Type of data set: in vivo, mouse. As for the experimental part:
The ability of the HA-derivative NtBuHA to increase methemoglobin levels was tested by placing PPT1-KO mice on a diet containing NtBuHA. After three months on the diet, the level of methemoglobin in the animal's blood was measured.

Data set [6] concerns PPT1-KO mice. The experiment in a line: Rotarod Performance Test, motor coordination of PPT1-KO mice. The class given is in vivo, mouse. The conditions noted are these: 6-month and 8-month old PPT1-KO mice (FIG. 19A-D). As for the experimental part:
Motor coordination of the untreated- and NtBuHA-treated PPT1-KO mice was assessed using Rotarod) (UGO Basile, Italy) at three different speeds (4, 8 and 12 rpm). In all these speeds the direction of rotation was reversed every 15 seconds. Animals were trained twice at all speed settings for 1 minute each for 3 days. Animals were then given a rest for 1 minute between two trials. Rotarod experiments were performed for at least 60 seconds on day 4 and the amount of time a mouse was on the rotarod before falling from the rotating rod was recorded.
(§2) Since NtBuHA functionally mimics PPT1, the inventors tested 6-month and 8-month old wild-type, untreated- and NtBuHA-treated PPT1-KO mice for motor coordination and exploratory behavior. The Rotarod Performance Test, which measures parameters such as riding time (seconds) and/or endurance was used to measure motor coordination. The open field test was utilized to evaluate the exploratory behavior.

The subject of data set [7] is PPT1-KO mice. In words: Open field test, exploratory behavior of PPT1-KO mice. The conditions noted are these: 6-month and 8-month old PPT1-KO mice (FIG. 19E-F). Type of data set: in vivo, mouse.
Excerpt: as §2

Data set [8] has as its system PPT1-KO mice. The experiment in a line: Toxicity of dietary NtBuHA in Ppt1-KO mice. Type of data set: in vivo, mouse. The text has this:
Thus, toxicity of HA precludes its clinical use. However, HA-derivatives may be non-toxic. […] (See Table 1 for a listing of these HA-derivatives). […] (See Table 3).

“And” between values parts separate entries of the source, which are not always exact repeats. Equal values may be shown once.

The source of these data is patent publication US9629816B2, “Small molecule therapeutic compounds targeting thioesterase deficiency disorders and methods of using the same” (The United States of America, as represented by the …, priority 2011, dated 2017).

As to `CC(C)(C)NO` [NtBuHA, N-(tert-Butyl)hydroxylamine], the “dose- and time-dependence of thioester linkage cleavage in [14C]palmitoyl-CoA” value in [1] was “cleaved the thioester linkage in a dose-dependent and time-dependent manner”. Further, the “toxicity / viability of INCL cells (MTT)” value with INCL fibroblasts is reported as “non-toxic”. The TUNEL-positive apoptotic cells result in the data set with PPT1-KO mice [2] is given as “appreciably lower levels of TUNEL-positive apoptotic cells”. Moreover, the “caspase-9 and cleaved PARP-1 level” value in the data set with PPT1-KO mice [3] is “marked reduction in caspase-9 and cleaved PARP-1 level”. In addition, the NeuN-positive cells result in the data set with PPT1-KO mice [4] is listed as “modestly higher level of NeuN-positive cells”. Further, the “% Methemoglobin” value in the data set with PPT1-KO mice [5] (individual NtBuHA-treated PPT1-KO mice, three months on diet, blood) was 0% and 0.5% and 0.7% and 0.6%. Also, the “% Methemoglobin, Mean” value with PPT1-KO mice [5] (mean of 4 NtBuHA-treated PPT1-KO mice, three months on diet, blood) worked out at 0.45%. For the same compound, the “effect on methemoglobin levels” value in the data set on PPT1-KO mice [5] (treatment up to three months) is listed as “does not increase methemoglobin levels”. For the same compound, in the data set on PPT1-KO mice [6], the “motor function (Rotarod)” value was “retained near normal motor function”. In the data set with PPT1-KO mice [7], the “exploratory behavior (open field)” value is recorded as “retained near normal motor function (FIG. 19A-D) as well as exploratory behavior”. In the data set on PPT1-KO mice [8], the “toxicity in Ppt1-KO mice” value is reported as “showed no toxicity”.
